According to publication PMC13566268, “Everolimus-Involving Immunosuppression Attenuates Renal Interstitial Fibrosis Through Modulation of Mammalian Target of Rapamycin-Related Signal Transduction” (International Journal of Molecular Sciences, 2026):

Assay: Pharmacokinetic assessment of immunosuppressants (blood/plasma trough and AUC)
Type: in vivo, human
Settings: Non-EVR group, plasma, mean ± SD
Experimental: Sampling was performed at both 1-month and 1-year posttransplantation. The area under the blood (plasma) concentration–time curve (AUC) was then calculated from these serial measurements.

COc1c(C)c2c(c(O)c1C/C=C(\C)CCC(=O)O)C(=O)OC2 [MPA, mycophenolic acid]
MPA AUC0–12 (at 1-month posttransplantation): 53500 ± 21000 ng·h/mL
MPA AUC0–12 (at 1-year posttransplantation): 51500 ± 20000 ng·h/mL
